Source: patent US12610952B2, “Antimicrobial compositions and methods” (EVOQ NANO, INC., priority 2014, dated 2026)

System: E. coli, ATCC #51813
Experiment: Antibacterial efficacy test, ATP Relative Light Unit (RLU) counts
Assay type: cell-based
Method: The NIST nanoparticles are formed by a chemical reduction process that utilizes citrate as reducing and capping agent.
Relative Light Unit (RLU) counts were recorded at 12 hours and 24 hours post treatment. RLU measurements were carried out using a Hygiena SystemSURE Plus V.2 SN067503 RLU meter with Hygenia AquaSnap TOTAL ATP Water Test Cat #U143 Lot #153019. Culturing media was Hardy Diagnostics Buffered Peptone Water Lot #118272. Samples were prepared with the nanoparticle treatments and then diluted with the media to provide the tested concentrations. The test organism (Microbiologics, E. coli, KwikStik, ATCC #51813, Ref #0791 K, Lot #791-1-6) was incubated in fresh Buffered Peptone Water growth media for 24 hours prior to exposure to the nanoparticle treatments.

For `O=[N+]([O-])[O-].[Ag+]` [AgNO3 Silver Nitrate, silver nitrate], the “RLU Counts at 12 Hours Post Exposure” value (0.25 ppm (mg/L)) was 80 RLU, the “RLU Counts at 24 Hours Post Exposure” value (0.25 ppm (mg/L)) was 25 RLU and the “RLU Counts at 12 Hours Post Exposure” value (0.5 ppm (mg/L)) was 75 RLU. For the same compound, the “RLU Counts at 24 Hours Post Exposure” value (0.5 ppm (mg/L)) was 46 RLU, the “RLU Counts at 12 Hours Post Exposure” value (1.0 ppm (mg/L)) was 84 RLU and the “RLU Counts at 24 Hours Post Exposure” value (1.0 ppm (mg/L)) was 30 RLU.
